ChEMBL document CHEMBL5576103, “Targeting prolidase. A survey of the literature data to depict a structure-activity relationship frame and to address future studies for drug development” (Bioorg Med Chem, 2024)
Blank lines part the entries; values can stand above or below the compound they belong to.

Key:
[1] = molecular target: T1, Xaa-Pro dipeptidase (Homo sapiens, UniProt P12955); assay: Competitive inhibition of prolidase (unknown origin) in erythrocytes assessed as inhibition constant
T1 sequence (P12955 whole entry): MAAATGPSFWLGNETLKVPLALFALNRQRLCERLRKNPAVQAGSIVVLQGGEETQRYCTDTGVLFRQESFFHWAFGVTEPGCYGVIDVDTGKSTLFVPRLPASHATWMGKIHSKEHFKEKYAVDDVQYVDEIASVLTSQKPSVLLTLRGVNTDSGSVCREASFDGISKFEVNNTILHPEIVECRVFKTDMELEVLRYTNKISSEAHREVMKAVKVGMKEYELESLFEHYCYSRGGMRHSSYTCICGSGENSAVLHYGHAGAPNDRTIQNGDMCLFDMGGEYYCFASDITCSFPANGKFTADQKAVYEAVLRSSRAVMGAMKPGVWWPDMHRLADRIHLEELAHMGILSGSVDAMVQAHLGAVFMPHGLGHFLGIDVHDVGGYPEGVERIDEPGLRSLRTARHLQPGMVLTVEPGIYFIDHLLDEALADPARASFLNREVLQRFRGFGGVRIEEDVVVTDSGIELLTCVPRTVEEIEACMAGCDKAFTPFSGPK

[2] = tested on: MDA-MB-231; assay: Cytotoxicity against human MDA-MB-231 cells assessed as reduction in cell viability measured for 72 hrs by MTT assay; conditions: MDA-MB-231, 72 h
[3] = tested on: MCF7; assay: Cytotoxicity against human MCF7 cells assessed as reduction in cell viability measured for 72 hrs by MTT assay; conditions: MCF7, 72 h
[4] = tested on: SK-MEL-5; assay: cells; conditions: Homo sapiens, SK-MEL-5, 48 h
Description: Growth inhibition of human SK-MEL-5 cells after 48 hrs by sulforhodamine B assay

[5] = molecular target: T1, Xaa-Pro dipeptidase; assay: Inhibition of prolidase (unknown origin)

Compound: O=NN(CCCl)C(=O)N1CCC[C@H]1C(=O)O
IC50 [2]: 88 µM
IC50 [3]: 102 µM

Compound: N[C@@H](Cc1ccc(N(CCCl)CCCl)cc1)C(=O)O
GI50 [4]: 74.8 µM

Further lines, results first:

Ki [1]: 9.73 µM
Compound: NC(=O)Nc1ccc(O)cc1

IC50 [5]: 0.3 µM
Compound: COc1cccc2c1C(=O)c1c(O)c3c(c(O)c1C2=O)C[C@@](O)(C(C)=O)C[C@@H]3O[C@H]1C[C@H](N)[C@H](O)[C@H](C)O1 [DAUNORUBICIN]

IC50 [5]: 10 µM
Compound: COc1cccc2c1C(=O)c1c(O)c3c(c(O)c1C2=O)C[C@@](O)(C(=O)CO)C[C@@H]3O[C@H]1C[C@H](N)[C@H](O)[C@H](C)O1 [DOXORUBICIN]
